Like-named read-outs stand apart in the source and are kept apart here.
Legend:
EGFR Del19/T790M/C797S = EGFR Del19/T790M/C797S (Homo sapiens, UniProt P00533, C797S/DEL746-750/T790M); test: Biochemical EGFR kinase inhibition assay (Lance Ultra TR-FRET), triple mutant del19/T790M/C797S
Summary of the method: (§1)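 Kinase activity is measured by TR-FRET phosphopeptide detection. Compounds span 0.003 μM to 10 μM; the 1 h reaction at room temperature is quenched with EDTA, then labelled antibody (2 nM) is incubated 60 min before reading.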

EGFR L858R/T790M/C797S = EGFR L858R/T790M/C797S (Homo sapiens, UniProt P00533, C797S/L858R/T790M); test: Biochemical EGFR kinase inhibition assay (Lance Ultra TR-FRET), triple mutant L858R/T790M/C797S
Summary of the method: as §1

EGFR Del19/C797S = EGFR Del19/C797S (Homo sapiens, UniProt P00533, C797S/DEL746-750); test: Biochemical EGFR kinase inhibition assay (Lance Ultra TR-FRET), double mutant del19/C797S
Summary of the method: as §1

EGFR L858R/C797S = EGFR L858R/C797S (Homo sapiens, UniProt P00533, C797S/L858R); test: Biochemical EGFR kinase inhibition assay (Lance Ultra TR-FRET), double mutant L858R/C797S
Summary of the method: as §1

EGFR wildtype (WT) = EGFR wildtype (WT) (Homo sapiens, UniProt P00533); test: Biochemical EGFR kinase inhibition assay (Lance Ultra TR-FRET), wildtype
Summary of the method: as §1

[1] = read-out: IC50 Del19/T790M/C797S (nM), 100 μM ATP
[2] = read-out: IC50 L858R/T790M/C797S (nM), 100 μM ATP
[3] = read-out: IC50 Del19/C797S (nM), 100 μM ATP
[4] = read-out: IC50 L858R/C797S (nM), 100 μM ATP
[5] = read-out: IC50 WT (nM), 100 μM ATP
[6] = ATP at Km, read-out: IC50 Del19/T790M/C797S (nM), Km ATP
[7] = ATP at Km, read-out: IC50 L858R/T790M/C797S (nM), Km ATP
[8] = ATP at Km, read-out: IC50 Del19/C797S (nM), Km ATP
[9] = ATP at Km, read-out: IC50 L858R/C797S (nM), Km ATP
[10] = ATP at Km, read-out: IC50 WT (nM), Km ATP
[11] = IC50 Del19/T790M/C797S (nM), 100 μM ATP
[12] = IC50 L858R/T790M/C797S (nM), 100 μM ATP
[13] = IC50 Del19/C797S (nM), 100 μM ATP
[14] = IC50 L858R/C797S (nM), 100 μM ATP
[15] = Km ATP, read-out: IC50 Del19/T790M/C797S (nM) Km ATP
[16] = Km ATP, read-out: IC50 L858R/T790M/C797S (nM) Km ATP
[17] = Km ATP, read-out: IC50 Del19/C797S (nM) Km ATP
[18] = Km ATP, read-out: IC50 L858R/C797S (nM) Km ATP
[19] = Km ATP, read-out: IC50 WT (nM) Km ATP

EGFR Del19/C797S, sequence (P00533 with tags, fused parts or gaps DEL746-750/C797S): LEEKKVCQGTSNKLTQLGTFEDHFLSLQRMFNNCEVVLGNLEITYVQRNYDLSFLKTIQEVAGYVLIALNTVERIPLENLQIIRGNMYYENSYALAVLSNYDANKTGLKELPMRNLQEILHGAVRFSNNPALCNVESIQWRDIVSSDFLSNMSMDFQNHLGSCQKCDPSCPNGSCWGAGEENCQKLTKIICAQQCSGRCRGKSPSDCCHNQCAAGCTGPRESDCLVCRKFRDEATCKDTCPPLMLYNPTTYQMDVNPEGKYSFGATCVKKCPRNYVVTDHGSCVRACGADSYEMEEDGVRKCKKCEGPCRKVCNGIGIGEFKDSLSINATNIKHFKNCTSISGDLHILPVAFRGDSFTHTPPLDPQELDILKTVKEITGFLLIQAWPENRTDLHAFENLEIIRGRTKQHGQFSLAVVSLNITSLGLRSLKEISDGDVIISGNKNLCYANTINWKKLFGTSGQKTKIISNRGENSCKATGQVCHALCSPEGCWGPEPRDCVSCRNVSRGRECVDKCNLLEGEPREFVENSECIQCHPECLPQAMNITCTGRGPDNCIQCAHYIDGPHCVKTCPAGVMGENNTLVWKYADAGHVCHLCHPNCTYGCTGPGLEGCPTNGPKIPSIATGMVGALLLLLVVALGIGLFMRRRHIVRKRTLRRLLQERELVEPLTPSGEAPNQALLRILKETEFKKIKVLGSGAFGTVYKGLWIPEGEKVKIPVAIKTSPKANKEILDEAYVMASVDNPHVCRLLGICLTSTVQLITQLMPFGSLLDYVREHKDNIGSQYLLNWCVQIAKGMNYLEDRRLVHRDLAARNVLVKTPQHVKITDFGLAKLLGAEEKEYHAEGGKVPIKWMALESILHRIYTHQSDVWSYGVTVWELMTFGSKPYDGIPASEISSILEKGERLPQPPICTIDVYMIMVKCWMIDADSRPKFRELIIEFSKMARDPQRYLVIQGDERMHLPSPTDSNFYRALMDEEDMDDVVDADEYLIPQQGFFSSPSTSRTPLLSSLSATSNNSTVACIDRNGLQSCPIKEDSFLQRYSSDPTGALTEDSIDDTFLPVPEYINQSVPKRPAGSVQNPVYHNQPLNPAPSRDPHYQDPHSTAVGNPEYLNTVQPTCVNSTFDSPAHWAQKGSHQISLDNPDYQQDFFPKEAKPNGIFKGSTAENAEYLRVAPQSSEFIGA
EGFR L858R/C797S, sequence (P00533 25-1210 C797S/L858R): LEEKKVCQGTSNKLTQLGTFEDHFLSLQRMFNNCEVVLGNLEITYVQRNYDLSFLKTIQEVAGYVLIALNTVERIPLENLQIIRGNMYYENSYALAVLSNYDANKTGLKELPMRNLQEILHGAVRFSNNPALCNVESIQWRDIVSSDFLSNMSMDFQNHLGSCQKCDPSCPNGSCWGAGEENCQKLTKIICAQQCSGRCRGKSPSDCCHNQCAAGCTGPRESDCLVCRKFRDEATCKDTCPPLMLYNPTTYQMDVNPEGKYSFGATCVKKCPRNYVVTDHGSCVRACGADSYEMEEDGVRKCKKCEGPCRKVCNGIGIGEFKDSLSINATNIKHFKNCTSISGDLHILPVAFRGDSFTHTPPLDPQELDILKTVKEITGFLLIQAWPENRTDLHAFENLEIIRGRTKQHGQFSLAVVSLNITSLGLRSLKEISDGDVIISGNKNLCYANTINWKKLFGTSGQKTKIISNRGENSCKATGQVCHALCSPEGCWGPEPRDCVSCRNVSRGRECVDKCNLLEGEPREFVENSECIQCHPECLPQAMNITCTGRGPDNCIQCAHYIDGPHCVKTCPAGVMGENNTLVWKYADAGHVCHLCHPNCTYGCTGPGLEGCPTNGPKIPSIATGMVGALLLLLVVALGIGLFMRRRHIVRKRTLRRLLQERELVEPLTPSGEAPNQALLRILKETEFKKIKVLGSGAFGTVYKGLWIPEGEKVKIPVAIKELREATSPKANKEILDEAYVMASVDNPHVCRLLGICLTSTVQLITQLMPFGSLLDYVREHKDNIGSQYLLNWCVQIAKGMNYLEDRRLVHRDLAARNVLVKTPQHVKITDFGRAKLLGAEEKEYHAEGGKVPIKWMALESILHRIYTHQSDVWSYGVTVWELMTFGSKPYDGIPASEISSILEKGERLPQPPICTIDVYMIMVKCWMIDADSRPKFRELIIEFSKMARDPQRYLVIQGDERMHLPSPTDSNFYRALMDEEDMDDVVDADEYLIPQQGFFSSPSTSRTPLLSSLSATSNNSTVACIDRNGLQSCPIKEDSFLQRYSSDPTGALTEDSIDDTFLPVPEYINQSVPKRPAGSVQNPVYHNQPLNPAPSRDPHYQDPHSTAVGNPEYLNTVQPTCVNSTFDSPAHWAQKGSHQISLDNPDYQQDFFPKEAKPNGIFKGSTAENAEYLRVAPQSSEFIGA
EGFR wildtype (WT), sequence (P00533 25-1210): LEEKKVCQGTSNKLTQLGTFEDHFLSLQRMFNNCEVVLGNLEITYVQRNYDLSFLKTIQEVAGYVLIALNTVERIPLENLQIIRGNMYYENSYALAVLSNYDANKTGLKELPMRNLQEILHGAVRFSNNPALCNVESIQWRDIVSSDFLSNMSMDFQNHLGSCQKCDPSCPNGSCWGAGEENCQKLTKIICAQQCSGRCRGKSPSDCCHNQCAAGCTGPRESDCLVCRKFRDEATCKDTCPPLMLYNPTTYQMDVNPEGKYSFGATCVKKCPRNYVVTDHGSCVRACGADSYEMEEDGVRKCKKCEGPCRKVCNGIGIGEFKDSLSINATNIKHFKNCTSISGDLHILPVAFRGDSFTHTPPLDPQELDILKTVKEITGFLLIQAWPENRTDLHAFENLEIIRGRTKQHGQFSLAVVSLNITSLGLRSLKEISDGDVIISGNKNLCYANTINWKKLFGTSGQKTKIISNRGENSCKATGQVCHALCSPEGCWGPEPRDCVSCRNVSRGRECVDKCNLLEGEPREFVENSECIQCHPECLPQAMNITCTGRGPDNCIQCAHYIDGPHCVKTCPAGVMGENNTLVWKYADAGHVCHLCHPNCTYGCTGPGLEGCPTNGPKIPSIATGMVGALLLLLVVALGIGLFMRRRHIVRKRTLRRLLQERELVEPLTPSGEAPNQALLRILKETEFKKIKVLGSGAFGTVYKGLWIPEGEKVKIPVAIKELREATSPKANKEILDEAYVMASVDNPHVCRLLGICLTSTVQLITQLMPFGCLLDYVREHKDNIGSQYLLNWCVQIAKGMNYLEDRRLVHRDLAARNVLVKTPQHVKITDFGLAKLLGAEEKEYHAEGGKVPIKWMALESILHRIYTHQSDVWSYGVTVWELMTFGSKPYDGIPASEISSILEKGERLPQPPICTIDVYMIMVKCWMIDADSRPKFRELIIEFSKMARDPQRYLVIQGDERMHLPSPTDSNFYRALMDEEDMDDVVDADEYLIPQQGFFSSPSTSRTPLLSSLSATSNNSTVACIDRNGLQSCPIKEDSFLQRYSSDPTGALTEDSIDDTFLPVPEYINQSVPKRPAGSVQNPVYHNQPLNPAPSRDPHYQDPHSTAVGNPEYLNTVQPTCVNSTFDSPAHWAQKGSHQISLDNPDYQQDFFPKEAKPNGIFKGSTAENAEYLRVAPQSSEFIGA
EGFR Del19/T790M/C797S, sequence (P00533 with tags, fused parts or gaps DEL746-750/T790M/C797S): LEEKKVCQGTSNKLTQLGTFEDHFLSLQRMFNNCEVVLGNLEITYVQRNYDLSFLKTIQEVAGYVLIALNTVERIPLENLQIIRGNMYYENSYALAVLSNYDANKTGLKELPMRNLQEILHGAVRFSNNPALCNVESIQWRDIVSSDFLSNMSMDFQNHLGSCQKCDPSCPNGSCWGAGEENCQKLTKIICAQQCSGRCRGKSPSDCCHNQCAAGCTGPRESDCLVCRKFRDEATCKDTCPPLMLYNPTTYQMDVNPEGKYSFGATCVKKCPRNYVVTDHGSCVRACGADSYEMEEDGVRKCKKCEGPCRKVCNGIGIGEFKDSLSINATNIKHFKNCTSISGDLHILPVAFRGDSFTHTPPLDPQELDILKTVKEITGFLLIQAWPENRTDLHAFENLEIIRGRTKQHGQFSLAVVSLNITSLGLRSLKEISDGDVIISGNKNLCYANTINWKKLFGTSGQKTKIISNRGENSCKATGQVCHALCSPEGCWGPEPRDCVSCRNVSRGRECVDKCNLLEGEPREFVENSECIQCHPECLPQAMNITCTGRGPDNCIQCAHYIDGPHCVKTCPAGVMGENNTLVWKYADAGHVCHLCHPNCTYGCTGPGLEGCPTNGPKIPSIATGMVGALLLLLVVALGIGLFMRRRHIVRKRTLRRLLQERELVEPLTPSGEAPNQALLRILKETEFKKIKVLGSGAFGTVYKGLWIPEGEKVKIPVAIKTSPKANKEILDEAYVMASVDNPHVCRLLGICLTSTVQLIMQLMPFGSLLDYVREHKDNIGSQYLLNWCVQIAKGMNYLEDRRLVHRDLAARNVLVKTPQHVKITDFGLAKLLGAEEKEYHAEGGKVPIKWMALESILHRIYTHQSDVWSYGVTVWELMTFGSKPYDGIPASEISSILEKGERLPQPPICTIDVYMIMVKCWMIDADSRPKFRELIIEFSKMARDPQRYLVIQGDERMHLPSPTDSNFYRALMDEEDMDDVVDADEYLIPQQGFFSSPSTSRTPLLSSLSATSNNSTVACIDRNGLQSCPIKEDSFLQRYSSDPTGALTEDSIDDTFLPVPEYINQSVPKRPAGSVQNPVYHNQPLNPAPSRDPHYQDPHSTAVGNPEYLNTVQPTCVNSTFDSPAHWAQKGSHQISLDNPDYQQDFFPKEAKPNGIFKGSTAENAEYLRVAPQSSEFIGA

SMILES | IC50 (EGFR Del19/T790M/C797S; [1]) [nM] | IC50 (EGFR L858R/T790M/C797S; [2]) [nM] | IC50 (EGFR Del19/C797S; [3]) [nM] | IC50 (EGFR L858R/C797S; [4]) [nM] | IC50 (EGFR wildtype (WT); [5]) [nM] | IC50 (EGFR Del19/T790M/C797S; [6]) [nM] | IC50 (EGFR L858R/T790M/C797S; [7]) [nM] | IC50 (EGFR Del19/C797S; [8]) [nM] | IC50 (EGFR L858R/C797S; [9]) [nM] | IC50 (EGFR wildtype (WT); [10]) [nM] | IC50 (EGFR Del19/T790M/C797S; [11]) [nM] | IC50 (EGFR L858R/T790M/C797S; [12]) [nM] | IC50 (EGFR Del19/C797S; [13]) [nM] | IC50 (EGFR L858R/C797S; [14]) [nM] | IC50 (EGFR wildtype (WT); IC50 WT (nM), 100 μM ATP) [nM] | IC50 (EGFR Del19/T790M/C797S; [15]) [nM] | IC50 (EGFR L858R/T790M/C797S; [16]) [nM] | IC50 (EGFR Del19/C797S; [17]) [nM] | IC50 (EGFR L858R/C797S; [18]) [nM] | IC50 (EGFR wildtype (WT); [19]) [nM]
Cn1cnc(C#Cc2cnc(Nc3ccnc(-c4cnn(S(=O)(=O)C5CC5)c4)n3)cc2N[C@H]2CC[C@@H](O)CC2)c1 [Example 216, (1s,4s)-4-((2-((2-(1-(Cyclopropylsulfonyl)-1H-pyrazol-4-yl)pyrimidin-4-yl)amino)-5-((1-methyl-1H-imidazol-4-yl)ethynyl)pyridin-4-yl)amino)cyclohexan-1-ol] | 0.7 | 0.8 | 4.9 | 28 | > 10000 | – | – | – | – | – | – | – | – | – | – | – | – | – | – | –
C[C@]1(O)CC[C@@H](Nc2cc(Nc3ccnc(-c4cnn(S(=O)(=O)C5CC5)c4)n3)ncc2C#CCN2CCOCC2)CC1 [Example 166, (1s,4s)-4-((2-((2-(1-(Cyclopropylsulfonyl)-1H-pyrazol-4-yl)pyrimidin-4-yl)amino)-5-(3-morpholinoprop-1-yn-1-yl)pyridin-4-yl)amino)-1-methylcyclohexan-1-ol] | 1.9 | 3.8 | 51.1 | 194 | > 10000 | 1.4 | 0.9 | 66.5 | 21.9 | 411 | – | – | – | – | – | – | – | – | – | –
CC1(CO)CCN(c2cc(Nc3ccnc(-c4cnn(S(=O)(=O)C5CC5)c4)n3)ncc2C#Cc2ccccc2)CC1 [Example 256, (1-(2-((2-(1-(Cyclopropylsulfonyl)-1H-pyrazol-4-yl)pyrimidin-4-yl)amino)-5-(phenylethynyl)pyridin-4-yl)-4-methylpiperidin-4-yl)methanol] | – | – | – | – | – | – | – | – | – | – | 20.6 | 17.7 | 7.6 | 67.3 | > 10000 | – | – | – | – | –
CN(C)CC1(C)CCN(c2cc(Nc3ccnc(-c4cnn(S(=O)(=O)C5CC5)c4)n3)ncc2C#Cc2cnn(C3CC3)c2)CC1 [Example 299, N-(5-((1-Cyclopropyl-1H-pyrazol-4-yl)ethynyl)-4-(4-((dimethylamino)methyl)-4-methylpiperidin-1-yl)pyridin-2-yl)-2-(1-(cyclopropylsulfonyl)-1H-pyrazol-4-yl)pyrimidin-4-amine] | – | – | – | – | – | 0.2 | 0.1 | 1.1 | 1.4 | 4.7 | 0.2 | 0.2 | 1 | 17.2 | 7510 | – | – | – | – | –
CC(=O)N1CCC(n2cc(C#Cc3cnc(Nc4ccnc(-c5cnn(S(=O)(=O)C6CC6)c5)n4)cc3N[C@H]3CC[C@@H](O)CC3)cn2)CC1 [Example 109, 1-(4-(4-((6-((2-(1-(Cyclopropylsulfonyl)-1H-pyrazol-4-yl)pyrimidin-4-yl)amino)-4-(((1 s, 4s)-4-hydroxycyclohexyl)amino)pyridin-3-yl)ethynyl)-1H-pyrazol-1-yl)piperidin-1-yl)ethan-1-one] | – | – | – | – | – | – | – | – | – | – | 1 | 1.4 | 3 | 9.1 | > 10000 | 0.9 | 0.7 | 2.3 | 1.6 | 10.4
O=S(=O)(C1CC1)n1cc(-c2nccc(Nc3cc(N[C@H]4CC[C@@H](O)CC4)c(C#CC4(O)CCCCC4)cn3)n2)cn1 [Example 174, 1-((6-((2-(1-(Cyclopropylsulfonyl)-1H-pyrazol-4-yl)pyrimidin-4-yl)amino)-4-(((1 s, 4s)-4-hydroxycyclohexyl)amino)pyridin-3-yl)ethynyl)cyclohexan-1-ol] | – | – | – | – | – | 0.5 | 1.2 | 11 | 30.5 | 150 | 0.9 | 2.1 | 10.8 | 283 | > 10000 | – | – | – | – | –
CC1(CO)CCN(c2cc(Nc3ccnc(-c4cnn(S(=O)(=O)C5CC5)c4)n3)ncc2C#Cc2cnn3c2CNCC3)CC1 [Example 149, (1-(2-((2-(1-(Cyclopropylsulfonyl)-1H-pyrazol-4-yl)pyrimidin-4-yl)amino)-5-((4,5,6,7-tetrahydropyrazolo[1,5-a]pyrazin-3-yl)ethynyl)pyridin-4-yl)-4-methylpiperidin-4-yl)methanol] | – | – | – | – | – | – | – | – | – | – | 0.4 | 0.2 | 0.4 | 3.4 | 853 | 0.2 | 0.1 | 0.2 | 0.3 | 1.6
CC(=O)N1CCC(n2cc(C#Cc3cnc(Nc4ccnc(-c5cnn(S(=O)(=O)C6CC6)c5)n4)cc3N3CCC(F)(CO)CC3)cn2)CC1 [Example 111, 1-(4-(4-((6-((2-(1-(Cyclopropylsulfonyl)-1H-pyrazol-4-yl)pyrimidin-4-yl)amino)-4-(4-fluoro-4-(hydroxymethyl)piperidin-1-yl)pyridin-3-yl)ethynyl)-1H-pyrazol-1-yl)piperidin-1-yl)ethan-1-one] | – | – | – | – | – | – | – | – | – | – | 0.9 | 1.3 | 2 | 4.7 | 4380 | 0.8 | 0.5 | 2 | 1.2 | 6
Cn1cc(C#Cc2cnc(Nc3ccnc(-c4cnn(S(=O)(=O)C5CC5)c4)n3)cc2N2CCC(O)CC2)c(C(F)(F)F)n1 [Example 89, 1-(2-((2-(1-(Cyclopropylsulfonyl)-1H-pyrazol-4-yl)pyrimidin-4-yl)amino)-5-((1-methyl-3-(trifluoromethyl)-1H-pyrazol-4-yl)ethynyl)pyridin-4-yl)piperidin-4-ol] | – | – | – | – | – | – | – | – | – | – | 4.3 | 19.6 | 63.8 | 183 | > 10000 | – | – | – | – | –
CN(C)C[C@H]1CC[C@@H](Nc2cc(Nc3ccnc(-c4cnn(S(=O)(=O)C5CC5)c4)n3)ncc2C#Cc2cnn(C3CC3)c2)CC1 [Example 313, 5-((1-Cyclopropyl-1H-pyrazol-4-yl)ethynyl)-N^2-(2-(1-(cyclopropylsulfonyl)-1H-pyrazol-4-yl)pyrimidin-4-yl)-N^4-((1s,4s)-4-((dimethylamino)methyl)cyclohexyl)pyridine-2,4-diamine] | – | – | – | – | – | 0.3 | 0.1 | 1.2 | 0.9 | 10.7 | 0.4 | 0.3 | 2 | 9 | 4690 | – | – | – | – | –
CC(C)Nc1cc(Nc2ccnc(-c3cnn(S(=O)(=O)C4CC4)c3)n2)ncc1C#CCN1CCS(=O)(=O)CC1 [Example 201, 4-(3-(6-((2-(1-(Cyclopropylsulfonyl)-1H-pyrazol-4-yl)pyrimidin-4-yl)amino)-4-(isopropylamino)pyridin-3-yl)prop-2-yn-1-yl)thiomorpholine 1,1-dioxide] | – | – | – | – | – | 1.7 | 1.2 | 36.7 | 141 | 292 | – | – | – | – | – | – | – | – | – | –

From US11981658B2, “Substituted aminopyridine compounds as EGFR inhibitors” (YUHAN CORPORATION, priority 2021, dated 2024)
